{"source": "patent US11369612B2", "about": "“Treatment of RSV with combination product” (Janssen Sciences Ireland Unlimited Company, priority 2017, dated 2022)", "test_system": "rgRSV224", "assay": "microbe, parasite or virus in culture", "assay_type": "cell-based, RSV", "conditions": "for normalized data (GFP response): average across 12 replicates", "procedure": "To evaluate their combined antiviral effect against RSV, in vitro combination studies were performed with Compound A, i.e. 3-({5-chloro-1-[3-(methylsulfonyl)propyl]-1H-indol-2-yl}methyl)-1-(2,2,2-trifluoroethyl)-1,3-dihydro-2H-imidazo[4,5-c]pyridin-2-one, and Compound B, i.e. (1S,2S)-2-[4-[7-cyclopropyl-5-[(1R)-1-methyl-3,4-dihydro-1H-isoquinoline-2-carbonyl]pyrazolo[1,5-a]pyrimidin-2-yl]-3-fluoro-phenyl]cyclopropanecarboxylic acid. In short, 9 concentrations of Compound A were combined with 6 or 7 concentrations of Compound B. HeLa cells were infected with rgRSV224, an engineered RSV strain that encodes for eGFP (Hallak L K, Spillmann D, Collins P L, Peeples M E. Glycosaminoglycan sulfation requirements for respiratory syncytial virus infection; Journal of Virology (2000), 74(22), 10508-13), in the presence of various concentrations of compound A and compound B individually or in combination.\nCompound stock solutions were 5 mM in 100% DMSO. First, the compounds were serially diluted in 3-fold dilution series in DMSO. The concentration series were diluted 100-fold in cell culture medium to achieve a combination matrix. 10 μL of these compound solutions were transferred to black 384-well clear-bottom tissue-culture treated plates. Next, 10 μL of a […] HeLa cell suspension was added to achieve 3000 cells per well. Finally, 10 μL of diluted virus stock was added to achieve an MOI of 1. The final DMSO concentration of all wells was 0.5% DMSO. Each combination of compound concentrations was tested in 4 replicates on 3 separate plates, resulting in a total of 12 replicates. The plates were incubated for 3 days at 37° C. in a humidified atmosphere at 5% CO2. The GFP signal was measured with PerkinElmer EnVision apparatus using a 405 nm filter.\nThe method of Harbron (Statistics in Medicine, 2010, DOI:10.1002/sim3916) was used to assess synergy. Using the Loewe definition, two compounds are characterized as being additive, synergistic or antagonistic by:\nwhere d1 and d2 represent the doses of the two compounds that in combination produce an effect y, and Dy,1 and Dy,2 represent the doses of the two compounds that produce the same effect, y, when administered as a monotherapy. A 3PL model (3-parameter log-logistic model) was used for the monotherapy dose-response data, where the baseline response was fixed at one.\nFollowing Harbron's approach, the following models were fitted to the data: • “Additive”: assuming no interaction between the two compounds • “Uniform”: assuming a constant interaction index τ across all dose combinations • “Linear A”: assuming the interaction index linearly depends on the log 10 dose of compound A: τ=τ1+τ2 log 10(dA) • “Separate A”: assuming the interaction index τ takes a separate value for each dose of compound A\nThe latter two models were also considered for compound B: • “Linear B”: assuming the interaction index linearly τ depends on the log 10 dose of compound B: τ=τ1+τ2 log 10(dB) • “Separate B”: assuming the interaction index τ takes a separate value for each dose of compound B"}
{"smiles": "CS(=O)(=O)CCCn1c(Cn2c(=O)n(CC(F)(F)F)c3ccncc32)cc2cc(Cl)ccc21", "note": "[Compound A, 3-({5-chloro-1-[3-(methylsulfonyl)propyl]-1H-indol-2-yl}methyl)-1-(2,2,2-trifluoroethyl)-1,3-dihydro-2H-imidazo[4,5-c]pyridin-2-one]", "values": [{"measurement": "normalized data (GFP response)", "setting": "A = 0.19, B = 0", "result": 1.07}, {"measurement": "normalized data (GFP response)", "setting": "A = 0.57, B = 0", "result": 1.05}, {"measurement": "normalized data (GFP response)", "setting": "A = 1.7, B = 0", "result": 0.99}, {"measurement": "normalized data (GFP response)", "setting": "A = 5.1, B = 0", "result": 0.74}, {"measurement": "normalized data (GFP response)", "setting": "A = 15, B = 0", "result": 0.48}, {"measurement": "normalized data (GFP response)", "setting": "A = 46, B = 0", "result": 0.29}, {"measurement": "normalized data (GFP response)", "setting": "A = 139, B = 0", "result": 0.18}, {"measurement": "normalized data (GFP response)", "setting": "A = 417, B = 0", "result": 0.08}, {"measurement": "normalized data (GFP response)", "setting": "A = 1250, B = 0", "result": 0.06}, {"measurement": "EC50", "setting": "human respiratory syncytial virus, HeLa, read-out: EC50 (dose at τ EC50)", "result": 13.1, "unit": "nM"}]}
{"smiles": "C[C@@H]1c2ccccc2CCN1C(=O)c1cc(C2CC2)n2nc(-c3ccc([C@H]4C[C@@H]4C(=O)O)cc3F)cc2n1", "note": "[Compound B, (1S,2S)-2-[4-[7-cyclopropyl-5-[(1R)-1-methyl-3,4-dihydro-1H-isoquinoline-2-carbonyl]pyrazolo[1,5-a]pyrimidin-2-yl]-3-fluoro-phenyl]cyclopropanecarboxylic acid]", "values": [{"measurement": "normalized data (GFP response)", "setting": "A = 0, B = 4.6", "result": 1.13}, {"measurement": "normalized data (GFP response)", "setting": "A = 0, B = 14", "result": 1.04}, {"measurement": "normalized data (GFP response)", "setting": "A = 0, B = 42", "result": 0.37}, {"measurement": "normalized data (GFP response)", "setting": "A = 0, B = 125", "result": 0.07}, {"measurement": "normalized data (GFP response)", "setting": "A = 0, B = 375", "result": 0.00}, {"measurement": "normalized data (GFP response)", "setting": "A = 0, B = 1125", "result": 0.00}]}
